From patent publication US20190070183A1, “Targeting Casein Kinase-1 and PI3K/AKT/mTOR Pathways for Treatment of c-Myc-Overexpressing Cancers, Organ Transplant Associated Complications and Autoimmune Diseases” (The Trustees of Columbia University in the City of New York, priority 2015, published 2019)

Key:
[1] = tested on: PI3K-AKT-mTOR-eIF4F-Myc signal cascade in LY10 cells; conditions: LY10, 24 h, PI3K inhibitors 3 μM, proteasome inhibitors 2 nM, single or combined
DLBCL cell line LY10 = test: Growth inhibition / viability of LY10 cells (CellTiter Glo), single agents and combinations, Bliss synergy; format: cell-based, human; conditions: LY10, 24 h, single agent
primary AITL cells = test: Cytotoxicity in primary AITL cells; format: cell-based, human
Procedure: (§1) Blood from consented patients was drawn into 10 ml EDTA-vacutainers. Blood was mixed with PBS containing 2 mM EDTA and 0.5% BSA in a 1:2 Ratio Blood to PBS. Next fifteen milliliters of Ficoll-Paque Plus (GE Healthcare) was pipetted into 50 ml centrifuge tubes, with blood-PBS mixture layered on top. Tubes were centrifuged at 400×g for 40 min at room temperature with no brake. PBMC's in the buffy coat were collected by pipette and washed in EDTA-BSA PBS. Supernatant was removed and 10 ml ACK Lysis Buffer (Thermo Fisher) was used to remove Erythrocytes. Pellets were again washed in EDTA-BSA PBS, resuspended and counted via automated cell counter. Cytotoxicity and Western Blotting assays were performed according to protocol.

primary SLL cells = test: Cytotoxicity in primary SLL cells (Cell Titer Glo); format: cell-based, human; conditions: 48 hours, 2.5, 5, and 7.5 nM
[2] = tested on: phosphorylation of 4EBP1 and protein level of c-Myc in LY7 cells; test: Western blot, LY7 cells; format: cell-based, human; conditions: for expression of c-Myc at 24 h: single agents
Western blot, LY7 cells = format: cell-based, human; conditions: LY7 and LY10, 24 h
CK1ε [3] = target: T1, CK1ε (Homo sapiens, UniProt P49674); test: CK1ε autophosphorylation assay (calyculin A, Western blot); format: cell-based; design: Full-length recombinant human CK1ε (CK1epsilon) was expressed by baculovirus in Sf9 insect cells; GST (N); purchased Promega; host or cells: Sf9 insect cells (baculovirus)
T1 sequence (P49674 whole entry): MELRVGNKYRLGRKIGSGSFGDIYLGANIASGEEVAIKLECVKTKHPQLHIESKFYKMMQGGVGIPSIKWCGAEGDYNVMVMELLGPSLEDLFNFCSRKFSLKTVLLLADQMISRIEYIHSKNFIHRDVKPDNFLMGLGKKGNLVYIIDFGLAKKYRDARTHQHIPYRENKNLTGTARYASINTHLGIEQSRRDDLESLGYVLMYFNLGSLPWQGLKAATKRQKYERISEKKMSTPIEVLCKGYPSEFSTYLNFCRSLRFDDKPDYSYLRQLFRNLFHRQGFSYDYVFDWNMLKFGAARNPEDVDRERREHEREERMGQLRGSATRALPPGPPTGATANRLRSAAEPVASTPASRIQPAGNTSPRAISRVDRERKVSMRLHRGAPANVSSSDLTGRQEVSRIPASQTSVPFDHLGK

CK1ε [4] = target: T1, CK1ε; test: CK1ε kinase activity assay (ADP-Glo, Promega)
Procedure: CK1ε kinase activity was determined using the CK1ε enzyme system from Promega, according to the manufacturer's instruction. […] The luminescent signal positively correlates with ADP amount and kinase activity.
Next, the CK1ε inhibiting activity of the above compounds was experimentally determined using the ADP-Glo™ Kinase Assay kit from Promega and recombinant CK1ε expressed by baculovirus in Sf9 insect cells.

CK1ε [5] = target: T1, CK1ε; test: Kinome profiling (Reaction Biology, radioisotope filter binding); conditions: cell free, 1 μM
Procedure: Kinome profiling was performed using the radioisotope filter binding assay from Reaction Biology.

caspase 3/7 = test: Activation of caspase 3/7 in LY10; format: cell-based, human; conditions: LY10, 24 h
Excerpt: FIG. 3. […] FIG. 3L-N: PARP cleavage.

DLBCL cell line LY7 = test: LY7 viability (Cell Titer Glo); format: cell-based, human; conditions: for activity inhibiting LY7 lymphoma cells (viability): 24 h, 10-50 μM, single agents
[6] = tested on: primary CLL and MCL cells; test: Cytotoxicity in primary CLL and MCL cells; conditions: 48 hours
Procedure: Pharmacological activities of PI3K and proteasome inhibitors in primary lymphoma cells. […] Cytotoxicity. Primary cells were isolated by ficoll gradient separation from three patients with SLL (FIG. 6A & FIG. 6B), CLL (FIG. 6C & FIG. 6D), MCL (FIG. 6E & FIG. 6F) respectively. The SLL cells were from pleural fluid, and the CLL and MCL cells were from peripheral blood. The cells were incubated with the experimental drugs as single agents and in combinations for 48 hours. The viability was determined by Cell Titer Glo, and presented as a function of each treatment conditions, as a percentage of the untreated control.
as §1

patients with DLBCL [7] = conditions: 9 patients; Westin 2014; cited from earlier work
[8] = tested on: cap dependent translation downstream of the 5′ UTR of c-MYC; test: Bicistronic luciferase reporter assay for c-Myc 5'UTR driven translation in LY7; format: cell-based, human; conditions: LY7 stably expressing reporter, 24 hr, 25 μM
[9] = tested on: phosphorylated AKT at Ser473; test: Inhibition of S473 p-AKT in serum-starved leukemia and lymphoma cell lines; format: cell-based, human; conditions: 1 μM, 4 hours
MOLT-4 cell line = test: Subcutaneous xenograft model of T-ALL (MOLT-4) in NOD/SCID mice; format: in vivo; conditions: daily oral 150 mg/kg, day 24, p<0.001
patients with DLBCL [10] = test: Clinical trials in patients with DLBCL; format: in vivo, human

SMILES: CC(C)C[C@H](NC(=O)[C@H](Cc1ccccc1)NC(=O)c1cnccn1)B(O)O [Bortezomib, [(1R)-3-methyl-1-({(2S)-3-phenyl-2-[(pyrazin-2-ylcarbonyl)amino]propanoyl}amino)butyl]boronic acid]
- inhibition of phosphorylation of 4EBP1 [1]: marginal or no inhibition
- inhibition of phosphorylation of AKT [1]: comparable and modest inhibition
- percentage of growth inhibition (DLBCL cell line LY10; 1 to 3 nM): did not produce significant inhibition
- percentage of growth inhibition (DLBCL cell line LY10; 4 to 8 nM): 42-90%
- single agent activity in AITL (primary AITL cells): more potent than carfilzomib
- inhibition of primary cells (primary SLL cells): 10-80%

SMILES: CC(C)Oc1ccc(-c2nn([C@@H](C)c3nc4cccc(F)c4c(=O)n3-c3ccccc3)c3ncnc(N)c23)cc1F [CUX-03173]
- reduction of protein level of c-Myc ([2]; LY7, 24 h): more effective than idelalisib and PF4800567
- inhibition of protein level of c-Myc ([2]; LY7 and LY10, 24 h): as potent as TGR-1202
- beta-catenin level (Western blot, LY7 cells): inhibited beta-catenin
- autophosphorylation of CK1ε (CK1ε [3]; LY7, 15 μM, then calyculin A): inhibited
- IC50 (CK1ε [4]): 9.4 µM

SMILES: CC(C)C[C@H](NC(=O)[C@H](CCc1ccccc1)NC(=O)CN1CCOCC1)C(=O)N[C@@H](Cc1ccccc1)C(=O)N[C@@H](CC(C)C)C(=O)[C@@]1(C)CO1 [Carfilzomib, (S)-4-methyl-N—((S)-1-(((S)-4-methyl-1-((R)-2-methyloxiran-2-yl)-1-oxopentan-2-yl)amino)-1-oxo-3-phenylpropan-2-yl)-2-((S)-2-(2-morpholinoacetamido)-4-phenylbutanamido)pentanamide]
- inhibition of phosphorylation of 4EBP1 [1]: marginal or no inhibition
- inhibition of phosphorylation of AKT [1]: comparable and modest inhibition
- percentage of growth inhibition (DLBCL cell line LY10; 1 to 2 nM): up to 35%
- inhibition of primary cells (primary SLL cells): 10-90%

SMILES: CC(Nc1ncnc2[nH]cnc12)c1cc2cccc(Cl)c2c(=O)n1-c1ccccc1 (stereo not drawn) [IPI-145]
- inhibition of kinase activity of CK1 epsilon (CK1ε [5]): not observed

SMILES: CC[C@H](Nc1ncnc2nc[nH]c12)c1nc2cccc(F)c2c(=O)n1-c1ccccc1 [Idelalisib]
- inhibition of phosphorylation of 4EBP1 [1]: moderately inhibit
- inhibition of phosphorylation of AKT [1]: more effective than TGR-1202
- effect on caspase activation caused by bortezomib (caspase 3/7; 5 μM added to bortezomib): failed to augment
- suppression of phosphorylation of 4EBP1 and protein level of c-Myc ([2]; LY7, 6 hours, 25-50 μM): only at the concentration of 50 μM
- expression of c-Myc at 24 h ([2]; LY7, 24 h): rebounded
- activity inhibiting LY7 lymphoma cells (viability) (DLBCL cell line LY7): only mild and comparable activity
- single agent activity in AITL (primary AITL cells): more effective than TGR-1202
- inhibition of kinase activity of CK1 epsilon (CK1ε [5]): not observed
- IC50 (CK1ε [4]): > 50 µM
- enhancement of cytotoxicity of bortezomib [6]: did not enhance
- responses in patients with DLBCL (patients with DLBCL [7]): did not produce any responses

SMILES: Nc1ncnc2c1c(COc1cccc(Cl)c1)nn2C1CCOCC1 [PF4800567]
- suppression of phosphorylation of 4EBP1 and protein level of c-Myc ([2]; LY7, 6 hours, 25-50 μM): only at the concentration of 50 μM
- phosphorylation of p70S6K1 ([2]; LY7, 24 h): substantially increased
- reduction of ratio of LucR/LucF by 50% [8]: not
- activity inhibiting LY7 lymphoma cells (viability) (DLBCL cell line LY7): only mild and comparable activity
- autophosphorylation of CK1ε (up-shifting of the CK1ε band) (CK1ε [3]; LY7, 1 μM, 1 h pretreatment then calyculin A): no up-shifting
- IC50 (CK1ε [4]): 0.0074 µM

SMILES: CC(C)n1nc(-c2cc3cc(O)ccc3[nH]2)c2c(N)ncnc21 [PP242]
- phosphorylation of p70S6K1 ([2]; LY7, 24 h): potently inhibited
- phosphorylation of 4EBP1 at S65 ([2]; LY7, 24 h, 750 nM): markedly inhibited
- level of c-Myc ([2]; LY7, 24 h, PP242 treatment): moderately reduced

SMILES: CC(C)Oc1ccc(-c2nn([C@@H](C)c3oc4ccc(F)cc4c(=O)c3-c3cccc(F)c3)c3ncnc(N)c23)cc1F [TGR-1202]
- inhibition of phosphorylation of 4EBP1 [1]: moderately inhibit
- effect on caspase 3/7 activation by carfilzomib (caspase 3/7; 1 μM added to carfilzomib): markedly enhanced
- reduction of phosphorylation of AKT (Ser473) [9]: 43-87%
- suppression of phosphorylation of 4EBP1 and protein level of c-Myc ([2]; LY7, 6 h, 15-50 μM): more potent than idelalisib and PF4800567
- suppression of phosphorylation of 4EBP1 and protein level of c-Myc ([2]; LY7, 6 hours, 25-50 μM): potently suppressed
- reduction of protein level of c-Myc ([2]; LY7, 24 h): more effective than idelalisib and PF4800567
- inhibition of phosphorylation of 4EBP1 and protein level of c-Myc ([2]; LY7, 24 h, 25 μM): highly effective
- expression of c-Myc at 24 h ([2]; LY7, 24 h): not relieved
- beta-catenin level (Western blot, LY7 cells): inhibited beta-catenin
- tumor response in xenograft (MOLT-4 cell line): significantly shrank the tumors
- activity inhibiting LY7 lymphoma cells (viability) (DLBCL cell line LY7): significantly more effective than idelalisib and PF4800567
- potency in cytotoxicity assay (DLBCL cell line LY7; LY7, 24 h): most potent among these compounds
- synergy with PP242 inhibiting phosphorylation of 4EBP1 at T70 and cell viability (DLBCL cell line LY7; LY7, PP […], other drugs 5 and 15 μM): synergistic with PP242
- IC50 (CK1ε [4]): 6 µM
- partial response in patients with DLBCL (patients with DLBCL [10]): 3 of 14
